Experimental data as given in patent US9029076B2, “Tissue preservation and fixation method” (George Mason Research Foundation, Inc., priority 2006, dated 2015).
Entries after “also recorded” stand apart in the source; their conditions may differ.

Tests used:
[1] = test system: mTOR (S2448); assay: RPA of fixed versus snap frozen samples; details: cellular equivalents printed on reverse phase protein microarrays, FIG. 7
From the text: We compared phosphoproteins from real time, room temperature shipping conditions in a methanol:water or ethanol:water fixative to samples that were snap frozen.

[2] = test system: EGFR Y1173; assay: Phosphorylation over time with phosphatase inhibitor in cell culture model; assay type: cell-based; details: living cells exposed to phosphatase inhibitor, FIG. 10A
Method: (§1) The phosphorylation rises rapidly to a high level in less than 40 minutes, which is followed by cell death.
(§2) These continuing metabolic processes present problems for the preservation of phosphoproteins in a sample. For example, the inventors have discovered that the addition of a phosphatase inhibitor alone, designed to block the removal of protein phosphate groups by endogenous phosphatases, can cause unchecked and highly abnormal upward accumulation of abnormal levels of phosphoproteins, reaching a lethal level.

[3] = test system: cultured cell line (A549); assay: as above; assay type: cell-based
Method: as §1, §2

[4] = test system: phosphoproteins; assay: Overall phosphoprotein preservation of FNA / tumor needle samples stored 24 h at 4° C.; details: compared to directly lysed cell baseline
Method: Fine Needle Aspirate (FNA) samples were stored for 24 hours at 4° C. in each of the chemicals/chemical solutions. The cellular samples were further processed for reverse phase protein microarray analysis. […] Each set of 4 horizontal spots by 2 vertical spots represent an original and its replicate sample, printed on the array in two-fold dilutions, for each FNA sample. The dilution series represents undiluted, 1:2, 1:4 and 1:8 dilutions of each sample.
A variety of types of tumor tissues were incubated in a series of conventional preservatives to determine if the preservatives were able to stabilize selected phosphoproteins.

[5] = test system: GSK3ab ser21/9; assay: RPA phosphoprotein level after 24 h storage of tumor needle samples in preservatives; details: 24 h in preservative at 4° C., relative normalized RPA intensity
Method: (§3) The RPA format, originated by the present inventors and collaborators (see, e.g., Paweletz et al. (2001) Oncogene 20, 1981-1989), immobilizes an individual test sample in a miniature dilution curve such that an array contains hundreds of different patient samples, treatments, or time points. In the RPA format, each array is incubated with one detection protein (e.g. anti-peptide antibody), and a single analyte endpoint is measured and directly compared across multiple samples. Briefly, the lysates are printed on glass backed nitrocellulose array slides (FAST Slides Whatman, Florham Park, N.J. or ONCYTE slides Grace BioLabs, Bend, Oreg.) using a robotic array printing device (GMS 417 arrayer (Affymetrix, Santa Clara, Calif. or Aushon 2470, Aushon Biosystems, Burlington, Mass. equipped with 125-500 μm pins). Each lysate is printed in a dilution curve representing neat, 1:2, 1:4, 1:8, 1:16 and negative control dilutions. The slides are stored with desiccant (Drierite, W. A. Hammond, Xenia, Ohio) at −20° C. prior to immunostaining.
(§4) Immunostaining is performed on an automated slide stainer per manufacturer's instructions (Autostainer CSA kit, Dako, Carpinteria, Calif.). Each slide is incubated with a single primary antibody at room temperature for 30 minutes. Polyclonal primary antibodies can be, e.g.: GSK3α/β Tyr279/216 (Invitrogen-Biosource, Carlsbad, Calif.), BCL-2, HIF-1α (BD, Franklin Lakes, N.J.), 4EBP1, FKHR ser256, eIF4E, eIF4E ser209, eIF4G, eIF4G ser1108, IGFR-β, IRS-1, IRS-2, IRS-1 ser612, SGK, Bak, Bax, BAD, BAD ser112, BAD ser136, BAD ser155, B-Raf, mTOR, mTOR ser2448, p70S6 Thr389, p70S6 kinase, p70S6 ser371, S6 kinase ser240/244, Akt, Akt ser473, Akt Thr308, 4EBP1 ser65, 4EBP1 ser70, and 4EBP1 Thr37/46 (Cell Signaling Technology, Danvers, Mass.). A negative control slide is incubated with antibody diluent. Secondary antibody can be goat anti-rabbit IgG H+L (1:5000) (Vector Labs, Burlingame, Calif.).
(§5) Each array is scanned, spot intensity analyzed, data normalized, and a standardized, single data value can be generated for each sample on the array (Image Quant v5.2, GE Healthcare, Piscataway, N.J.) or MicroVigene v2.8, Vigene Tech, Billerica, Mass.). Spot intensity is integrated over a fixed area. Local area background intensity is calculated for each spot with the unprinted adjacent slide background. […] The Ward method for two-way hierarchical clustering can be performed using JMP v5.0 (SAS Institute, Cary N.C.). Wilcoxon two-sample rank sum test can be used to compare values between two groups. P values less than 0.05 are considered significant. When one cannot assume a normal distribution of the variables, non-parametric methods are used. Kaplan-Meier (log-rank) survival estimates for univariate survival analysis can be used.
(§6) Briefly, tumor tissues from gastrinoma/liver, mesothelioma and parathyroid tumors were sampled by five needle passes and placed into the preservatives listed in Table 5. […] Immediate lysis and denaturation of the cellular proteins were accomplished by standard Pierce Tissue Protein Extraction Buffer (T-PER), with additional SDS, denaturing reagents, and detergents. The cell samples were stored 24 h in the listed preservatives at 4° C. and then the listed phosphoprotein endpoints were measured. […] Some values dropped to zero while others are markedly elevated compared to the freshly lysed cell baseline. […] They were unable to stabilize the phosphorylation state of key signal proteins over a storage period of 24 hours, which is a typical time delay for cell or tissue shipment. Numbers in the table are relative normalized intensity values using the RPA technology described herein.

[6] = test system: AKT ser473; assay: as above; details: 24 h in preservative at 4° C., relative normalized RPA intensity
Method: as §3, §4, §5, §6

[7] = test system: AKT Thr308; assay: as above; details: 24 h in preservative at 4° C., relative normalized RPA intensity
Method: as §3, §4, §5, §6

[8] = test system: CREB ser133; assay: as above; details: 24 h in preservative at 4° C., relative normalized RPA intensity
Method: as §3, §4, §5, §6

[9] = test system: IKappa-Ba ser32; assay: as above; details: 24 h in preservative at 4° C., relative normalized RPA intensity
Method: as §3, §4, §5, §6

[10] = test system: EGFR Y1148; assay: as above; details: 24 h in preservative at 4° C., relative normalized RPA intensity
Method: as §3, §4, §5, §6

[11] = test system: IRS-1 ser612; assay: as above; details: 24 h in preservative at 4° C., relative normalized RPA intensity
Method: as §3, §4, §5, §6

[12] = test system: ERK T202/Y204; assay: as above; details: 24 h in preservative at 4° C., relative normalized RPA intensity
Method: as §3, §4, §5, §6

[13] = test system: CC3 Asp175; assay: as above; details: 24 h in preservative at 4° C., relative normalized RPA intensity
Method: as §3, §4, §5, §6

[14] = test system: p38 T180/182; assay: as above; details: 24 h in preservative at 4° C., relative normalized RPA intensity
Method: as §3, §4, §5, §6

[15] = Gastrinoma/liver tumor, Lysis Buffer = frozen immediately after lysis
[16] = Parathyroid tumor, Lysis Buffer = frozen immediately after lysis

CO [20-50% methanol in water, methanol]
level of mTOR (S2448) phosphorylation, fixed versus snap frozen [1]: equivalence

pervanadate
time for EGFR Y1173 phosphorylation to rise to a high level [2]: less than 40 minutes | phosphorylation of phospho-endpoints over time ([3]; A549 cells, FIG. 10): hyperphosphorylation over time; also recorded: large surge of phosphorylation | fate of cells after phosphorylation surge ([3]; living cells exposed to phosphatase inhibitor, FIG. 10A): cell death

CCO [70% ethanol, ethanol]
preservation of phosphoproteins overall [4]: significant, reproducible degradation of the phospho endpoints | GSK3ab ser21/9 Normalized data [5, 15]: 19.01 | GSK3ab ser21/9 Normalized data ([5]; Mesothelioma): 31.87 | GSK3ab ser21/9 Normalized data [5, 16]: 60.83 | AKT ser473 Normalized data [6, 15]: 0.00 | AKT ser473 Normalized data ([6]; Mesothelioma): 10.94 | AKT ser473 Normalized data [6, 16]: 7.18 | AKT Thr308 Normalized data [7, 15]: 0.00 | AKT Thr308 Normalized data ([7]; Mesothelioma): 15.15 | AKT Thr308 Normalized data [7, 16]: 18.57 | CREBser133 Normalized data [8, 15]: 103.07 | CREBser133 Normalized data ([8]; Mesothelioma): 53.05 | CREBser133 Normalized data [8, 16]: 67.91 | IKappa-Ba ser32 Normalized data [9, 15]: 28.36 | IKappa-Ba ser32 Normalized data ([9]; Mesothelioma): 25.09 | IKappa-Ba ser32 Normalized data [9, 16]: 32.97 | EGFR Y1148 Normalized data [10, 15]: 39.95 | EGFR Y1148 Normalized data ([10]; Mesothelioma): 30.71 | EGFR Y1148 Normalized data [10, 16]: 47.58 | IRS-1 ser612 Normalized data [11, 15]: 19.74 | IRS-1 ser612 Normalized data ([11]; Mesothelioma): 12.16 | IRS-1 ser612 Normalized data [11, 16]: 15.92 | ERK T202/Y204 Normalized data [12, 15]: 11.51 | ERK T202/Y204 Normalized data ([12]; Mesothelioma): 30.74 | ERK T202/Y204 Normalized data [12, 16]: 37.27 | CC3 Asp175 Normalized data [13, 15]: 5.09 | CC3 Asp175 Normalized data ([13]; Mesothelioma): 15.92 | CC3 Asp175 Normalized data [13, 16]: 19.16 | p38 T180/182 Normalized data [14, 15]: 27.50 | p38 T180/182 Normalized data ([14]; Mesothelioma): 49.07 | p38 T180/182 Normalized data [14, 16]: 45.63
